Reference: paper PMC9682871 (Antiviral Research, 2022)

What was measured:
[1] = system: pseudovirus presenting the spike of MERS-CoV; assay: organism not typed; type: cell-based
MERS-CoV [2] = type: cell-based
HCoV-229E = type: cell-based
HCoV-OC43 = type: cell-based
SARS-CoV = type: cell-based
MERS-CoV [3] = type: cell-based; remark: listed apart in the source
SARS-CoV-2 [4] = type: cell-based
A549 cells [5] = type: cell-based; settings: 10 μM, 12 h
A549 cells [6] = type: cell-based; settings: 10 μM, 12 h; remark: listed apart in the source
SARS-CoV-2 [7] = settings: hamster, in vivo

Row | Structure (SMILES) | pseudovirus infection / luciferase signal [1] | inhibition by time of addition (MERS-CoV [2]) | efficacy against HCoV-229E (HCoV-229E) | efficacy against HCoV-OC43 (HCoV-OC43) | potency against SARS-CoV (SARS-CoV) | MERS-CoV infection assay, immunofluorescence (MERS-CoV [3]) | EC50 ([1]; Huh-7, read-out: Pseudovirus (EC50, μM)) | inhibition of SARS-CoV-2 infection by viral RNA (SARS-CoV-2 [4]) | total cellular cholesterol (A549 cells [5]) | CH25H gene expression (A549 cells [6]) | SQLE expression (A549 cells [6]) | cytotoxic effects in the pseudovirus assay (Huh-7 cells) | activity level or survival rate (SARS-CoV-2 [7])
1 | CCCCc1oc2ccccc2c1C(=O)c1cc(I)c(OCCN(CC)CC)c(I)c1 [amiodarone] | outstanding antiviral activity | strongly inhibited the viral infection when added at an early time point | showed efficacy | showed efficacy | strong potency |  |  |  |  |  |  |  | 
2 | CCN(CC)CCCC(C)Nc1ccnc2cc(Cl)ccc12 (centres unmarked) [chloroquine] |  | stage-selective activity |  |  |  | quenched in a concentration-dependent manner |  |  |  |  |  |  | 
3 | Cc1cccc(C)c1OCC(=O)N[C@@H](Cc1ccccc1)[C@@H](O)C[C@H](Cc1ccccc1)NC(=O)[C@H](C(C)C)N1CCCNC1=O [lopinavir] |  | showed efficacy when added at a relatively later stage of infection |  |  |  | quenched in a concentration-dependent manner |  |  |  |  |  |  | 
4 | O=C(c1ccc(OCCN2CCCCC2)cc1)c1c(-c2ccc(O)cc2)sc2cc(O)ccc12 [raloxifene] |  | more potent when added at the earlier stages | effective | effective | strong potency |  | 0.2 µM | strong potency | marginal elevation | do not show alteration | significantly enhanced | no significant cytotoxic effects | no significant changes
